Assay results taken from PubChem BioAssay AID248 (DTP/NCI, 2004).
Where “and” joins values, the source holds several entries; their conditions need not be identical. Equal values may be shown once. Inconclusive results and toxic doses are left out. No stated cut-off is given here; in the data, active means T/C of 150% or more; inactive means T/C below 125%.

Test system: L1210 leukemia ip in BDF1 mice, survival T/C
Assay: NCI In Vivo Anticancer Drug Screen. Data for tumor model L1210 Leukemia (intraperitoneal) in B6D2F1 (BDF1) mice
Conditions: endpoint: mean survival time, higher = longer survival
In short: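 Transplantable tumor model; survival measured in treated vs vehicle control mice. Value = treated/control.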

[1] = dose: 100.0 mg/kg/injection, schedule: Q01DX009 (ip), vehicle: Klucel (hydroxypropylcellulose) (HPC)
[2] = dose: 200.0 mg/kg/injection, schedule: Q01DX009 (ip), vehicle: Klucel (hydroxypropylcellulose) (HPC)
[3] = dose: 400.0 mg/kg/injection, schedule: Q01DX009 (ip), vehicle: Klucel (hydroxypropylcellulose) (HPC)
[4] = dose: 100.0 mg/kg/injection, schedule: Q04DX003 (ip), vehicle: saline
[5] = dose: 100.0 mg/kg/injection, schedule: Q04DX002 (ip), vehicle: Klucel (hydroxypropylcellulose) (HPC)
[6] = dose: 200.0 mg/kg/injection, schedule: Q04DX002 (ip), vehicle: Klucel (hydroxypropylcellulose) (HPC)
[7] = dose: 400.0 mg/kg/injection, schedule: Q04DX002 (ip), vehicle: Klucel (hydroxypropylcellulose) (HPC)
[8] = dose: 100.0 mg/kg/injection, schedule: Q04DX003 (ip), vehicle: Klucel (hydroxypropylcellulose) (HPC)
[9] = dose: 200.0 mg/kg/injection, schedule: Q04DX003 (ip), vehicle: Klucel (hydroxypropylcellulose) (HPC)

Measured: T/C

O=c1c2ccccc2nc(-c2ccccc2)n1/N=C/c1ccccc1O
inactive: [1] 103 % of control | [2] 103 % of control | [3] 100 % of control

COC(=O)C(c1ccccc1)C(Br)C(=O)c1ccc(Cl)cc1 (configuration not stated)
inactive: [1] 92 % of control | [2] 97 % of control | [3] 94 % of control

CCSc1ccc2c(c1)N(CCCN1CCN(C)CC1)c1ccccc1S2
inactive: dose: 3.12 mg/kg/injection, schedule: Q01DX009 (ip), vehicle: saline 110 % of control | dose: 6.25 mg/kg/injection, schedule: Q01DX009 (ip), vehicle: saline 107 % of control | dose: 6.25 mg/kg/injection, schedule: Q04DX003 (ip), vehicle: saline 93 % of control | dose: 12.5 mg/kg/injection, schedule: Q01DX009 (ip), vehicle: saline 100 % of control | dose: 12.5 mg/kg/injection, schedule: Q04DX003 (ip), vehicle: saline 100 % of control and 101 % of control | dose: 25.0 mg/kg/injection, schedule: Q01DX009 (ip), vehicle: saline 113 % of control | dose: 25.0 mg/kg/injection, schedule: Q04DX003 (ip), vehicle: saline 96 % of control and 97 % of control and 103 % of control | dose: 50.0 mg/kg/injection, schedule: Q01DX009 (ip), vehicle: saline 98 % of control | dose: 50.0 mg/kg/injection, schedule: Q04DX003 (ip), vehicle: saline 100 % of control and 110 % of control | [4] 114 % of control and 104 % of control and 110 % of control

Nc1ccc(Cl)c(C(=O)O)c1
inactive: [1] 111 % of control | [2] 121 % of control | [3] 105 % of control

O=C1CCOc2ccccc21
inactive: dose: 100.0 mg/kg/injection, schedule: Q04DX002 (ip), vehicle: other 87 % of control | dose: 200.0 mg/kg/injection, schedule: Q04DX002 (ip), vehicle: other 90 % of control | dose: 400.0 mg/kg/injection, schedule: Q04DX002 (ip), vehicle: other 94 % of control

CCn1cc(C(=O)O)c(=O)c2c3ccccc3ccc21
inactive: [5] 96 % of control | [6] 93 % of control | [7] 100 % of control

CCCCCNC(=S)Nc1ccccc1
inactive: dose: 38.0 mg/kg/injection, schedule: Q04DX003 (ip), vehicle: other 98 % of control | dose: 75.0 mg/kg/injection, schedule: Q01DX001 (ip), vehicle: other 98 % of control | dose: 75.0 mg/kg/injection, schedule: Q04DX003 (ip), vehicle: other 102 % of control | dose: 150.0 mg/kg/injection, schedule: Q01DX001 (ip), vehicle: other 112 % of control | dose: 150.0 mg/kg/injection, schedule: Q04DX003 (ip), vehicle: other 96 % of control | dose: 300.0 mg/kg/injection, schedule: Q01DX001 (ip), vehicle: other 110 % of control

CC1(C)N=C(N)N=C(N)N1c1cccc(Cc2ccccc2)c1
inactive: dose: 25.0 mg/kg/injection, schedule: Q01DX001 (ip), vehicle: saline with Tween-80 92 % of control | dose: 50.0 mg/kg/injection, schedule: Q01DX001 (ip), vehicle: saline with Tween-80 106 % of control

C[C@@H]1C[C@@]2(C)[C@@H](CC[C@@H]3[C@@H]2CC[C@]2(C)[C@@H](O)CC[C@@H]32)C[C@@H]1O
inactive: dose: 62.5 mg/kg/injection, schedule: Q01DX015 (sc), vehicle: steriod suspending solution 100 % of control | dose: 125.0 mg/kg/injection, schedule: Q01DX015 (sc), vehicle: steriod suspending solution 94 % of control | dose: 250.0 mg/kg/injection, schedule: Q01DX015 (sc), vehicle: steriod suspending solution 102 % of control | dose: 500.0 mg/kg/injection, schedule: Q01DX015 (sc), vehicle: steriod suspending solution 94 % of control

COc1ccc(NC(=S)N(CCC#N)C2CCCCC2)cc1
inactive: [5] 101 % of control | [6] 94 % of control | [7] 90 % of control

CSc1nnc([N+](=O)[O-])s1
inactive: dose: 6.25 mg/kg/injection, schedule: Q01DX009 (ip), vehicle: Klucel (hydroxypropylcellulose) (HPC) 94 % of control | dose: 12.5 mg/kg/injection, schedule: Q01DX009 (ip), vehicle: Klucel (hydroxypropylcellulose) (HPC) 90 % of control

CCOC(=O)Nc1cc2c(c(N)n1)N=C(CN(C)c1ccc(C(=O)OC)cc1)CN2
inactive: dose: 5.0 mg/kg/injection, schedule: Q01DX009 (ip), vehicle: saline with Tween-80 105 % of control | dose: 10.0 mg/kg/injection, schedule: Q01DX009 (ip), vehicle: saline with Tween-80 118 % of control | dose: 20.0 mg/kg/injection, schedule: Q01DX009 (ip), vehicle: saline with Tween-80 124 % of control | dose: 100.0 mg/kg/injection, schedule: Q01DX001 (ip), vehicle: other 107 % of control | dose: 200.0 mg/kg/injection, schedule: Q01DX001 (ip), vehicle: other 111 % of control

CN(C)/N=C/C=C/c1ccccc1
inactive: dose: 25.0 mg/kg/injection, schedule: Q01DX009 (ip), vehicle: Klucel (hydroxypropylcellulose) (HPC) 98 % of control | dose: 50.0 mg/kg/injection, schedule: Q01DX009 (ip), vehicle: Klucel (hydroxypropylcellulose) (HPC) 102 % of control | dose: 50.0 mg/kg/injection, schedule: Q04DX003 (ip), vehicle: Klucel (hydroxypropylcellulose) (HPC) 100 % of control | [1] 88 % of control | dose: 100.0 mg/kg/injection, schedule: Q01DX009 (ip), vehicle: saline 105 % of control | [8] 99 % of control | [4] 98 % of control | dose: 200.0 mg/kg/injection, schedule: Q01DX009 (ip), vehicle: saline 100 % of control | [9] 97 % of control | dose: 200.0 mg/kg/injection, schedule: Q04DX003 (ip), vehicle: saline 97 % of control | dose: 400.0 mg/kg/injection, schedule: Q04DX003 (ip), vehicle: saline 102 % of control

NC(=O)OCC(CO)(c1ccccc1)c1ccccc1
inactive: dose: 5.0 mg/kg/injection, schedule: Q01DX001 (ip), vehicle: saline 98 % of control | dose: 10.0 mg/kg/injection, schedule: Q01DX001 (ip), vehicle: saline 93 % of control | dose: 20.0 mg/kg/injection, schedule: Q01DX001 (ip), vehicle: saline 102 % of control | dose: 40.0 mg/kg/injection, schedule: Q01DX001 (ip), vehicle: saline 102 % of control | dose: 80.0 mg/kg/injection, schedule: Q01DX001 (ip), vehicle: saline 98 % of control

CCCCCCCCCCCCNC(=O)c1ccc[n+](Cc2ccccc2)c1
inactive: dose: 5.0 mg/kg/injection, schedule: Q01DX009 (ip), vehicle: saline 102 % of control | dose: 5.0 mg/kg/injection, schedule: Q04DX003 (ip), vehicle: saline sonified 101 % of control | dose: 10.0 mg/kg/injection, schedule: Q01DX009 (ip), vehicle: saline 98 % of control | dose: 10.0 mg/kg/injection, schedule: Q04DX003 (ip), vehicle: saline sonified 106 % of control

CCOC(=O)c1cnc(SC)nc1NC(C(=O)OCC)C(=O)OCC
inactive: [8] 93 % of control | [9] 100 % of control | dose: 400.0 mg/kg/injection, schedule: Q04DX003 (ip), vehicle: Klucel (hydroxypropylcellulose) (HPC) 95 % of control

COc1ccc(Cl)cc1N=Cc1cccc([N+](=O)[O-])c1
inactive: [1] 102 % of control | [2] 94 % of control | [3] 94 % of control

Nc1nc(Nc2ccc(Cl)c(Cl)c2)cc(=O)[nH]1
inactive: dose: 200.0 mg/kg/injection, schedule: Q01DX Z (ip), vehicle: methylcellulose (MC) 86 % of control

Cc1ccc(NC(=O)COc2ccc(Cl)cc2)cc1
inactive: dose: 100.0 mg/kg/injection, schedule: Q04DX002 (ip), vehicle: saline + alcohol 103 % of control | dose: 200.0 mg/kg/injection, schedule: Q04DX002 (ip), vehicle: saline + alcohol 100 % of control | dose: 400.0 mg/kg/injection, schedule: Q04DX002 (ip), vehicle: saline + alcohol 92 % of control
